Reference: US8268961B2, “Antibacterial peptides and analogues thereof” (Universita Degli Studi di Siena, priority 2004, dated 2012)
Where two headings read alike, the source gives them in different places. Positions of bridges follow the written chain, without caps; N, C: chain ends. Residues, ends and D or L forms follow the SMILES beside them. Chains are numbered I, II in the order given. No end group written: not given here.

Experiments:
[1] = tested on: Escherichia coli ATCC 25922; type: cell-based
Description: (§1) MIC is defined as the lowest concentration, in an antibiotic dilution range, that inhibits visible bacterial growth. The importance of MIC sensitivity test is based on the principle that in vitro sensitivity provides a predictive indication of the in vivo efficacy of the antibiotic therapy. Values are expressed as molar concentration and compared to MIC values obtained with commercially available antibiotics such as amikacin, ceftriaxone and levofloxacin (Table 3).
(§2) Reference strains (Escherichia coli ATCC 25922, Pseudomonas aeruginosa ATCC 27853, Staphylococus aureus ATCC 25923 and Chryseobacterium meningosepticum CCUG 4310) and several recent clinical isolates (including multidrug-resistant ones) of various species (Table 2) were used for conventional susceptibility testing experiments. Minimum Inhibitory Concentration (MIC) was determined by a standard microdilution assay as recommended by the National Commitee for Clinical Laboratory Standards (NCCLS) using cation-supplemented Mueller-Hinton (MH) broth (Oxoid Ltd. Basingstoke, UK) and a bacterial inoculum of 5×10^4 CFU per well, in a final volume of 100 μl. Results were recorded by visual inspection after 24 h of incubation at 37° C.

[2] = tested on: Pseudomonas aeruginosa ATCC27853; type: cell-based
Description: as §1, §2

[3] = tested on: Staphylococcus aureus ATCC 25923; type: cell-based; details: Staphylococcus aureus ATCC 25923, reference strain
Description: as §1, §2

[4] = tested on: E. coli plasmid vector pCEP4 DNA; test: DNA binding assay (gel retardation); details: 200 ng pCEP4, 1% agarose gel, 1 h room temperature
Procedure: In an attempt to clarify the molecular mechanism of action, the authors examined the binding properties on DNA exerted by M6 dendrimeric peptide and magainin 2, an antimicrobial peptide which has a pore-forming activity on the cell membrane. The DNA binding abilities of M6 and magainin 2 were examined by analyzing the electrophoretic mobility of DNA bands at the various weight ratios of peptides to DNA on a 1% (w/v) agarose gel.
Gel-retardation experiments were performed by mixing 200 ng of the E. coli plasmid vector pCEP4 (Invitrogen) with increasing amounts of M6 peptide in 20 μl of binding buffer (5% glycerol, 10 mM Tris-HCl (pH 8.0), 1 mM EDTA, 1 mM DTT, 20 mM KCl and 50 μg/ml BSA). The reaction mixtures were incubated at room temperature for 1 h. Subsequently, 4 μl of native loading buffer was added (40% saccarose, 0.25% bromophenol blue) and an aliquot of 12 μl was applied to a 1% agarose gel electrophoresis in 1 mM Tris borate-EDTA buffer.

E. coli strain TG1 = test: Test of antibacterial activity (colony growth inhibition) on E. coli strain TG1; type: cell-based; details: E. coli TG1, colony counting vs control without peptide
Procedure: The antimicrobic activity of the peptides in linear form (L1, L4, L5, L6) and in MAP form (M1, M4, M5, M6) was assayed on the TG1 strain of E. coli. The peptides were incubated at various concentrations (2-1-0.5-0.25-0.12 mg/ml) with cells of E. coli (OD600=0.2) for about 1 hour at 37° C. Subsequently, the cells were plated on agar at dilution such to allow counting of individual colonies. The antimicrobic activity of the synthesised peptide L 1 and M1 is shown FIG. 1 and is compared to a non correlated MAP peptide (MNC) used as negative control.
In one example, the tetrabranched MAP peptides with the amino acid sequence: QAKIRVRLSA [SEQ ID NO: 2], KIRVRLSA [SEQ ID NO: 3], QKKIRVRLSA [SEQ ID NO: 4] are used individually in a bacterial colony growth inhibition test. The test is conducted by incubating different concentrations of MAP peptides with E. coli (strain TG1) and plating bacterial cells on agar at a dilution such to allow for individual colonies counting. The following day, the number of colonies grown after treatment with the three MAP peptides is compared.
Antimicrobic tests were conducted incubating for 75 min at 37° C., 25 μL of E. coli at the OD600 of 0.2 with 25 μl of MAP peptide dissolved in PBS at the various concentrations. The different incubations were further diluted 1:1000 in 2×TY medium and 100 μl were plated on solid 2×TY medium. The plates were left overnight at 30° C. and the individual grown colonies were counted and compared with a control, not treated with MAP peptide.

[5] = Stability to plasmatic protease (HPLC); type: in vitro ADME, human
Procedure: Since the use of peptides as therapeutic agents is severely limited by their in vivo half-life, the stability to human serum protease of the linear peptide L1 and of the MAP peptides M1, M4, M5 and M6 was evaluated. The peptides were incubated at the concentration of 10 mM with plasma and with human serum for 2 and 24 hours; the samples were subsequently analysed in HPLC on column C18 (see materials and methods) to evaluate the presence of linear and MAP peptide not digested by the protease.
The various peptides in MAP form and the linear peptide (L1) were dissolved in H2O at the concentration of 10 mM and incubated with 10 μl of plasma and human serum for 2 and 24 hours at 37° C. To each sample were added 150 μl of methanol to block the proteolytic reaction; each sample was then centrifuged at 13,000 rpm for 2 min and to the supernatant were added 0.75 ml of 0.1% trifluoroacetic acid. The samples were analysed in reverse phase HPLC on a Vydac C18 semi-preparative column using a 30 min gradient of buffer B from 20% to 95% (buffer A: 0.1% trifluoroacetic acid/water; buffer B: 0.1% trifluoroacetic acid/methanol), to evaluate the presence of linear and MAP peptide after the proteolytic treatment.

[6] = Escherichia coli ATCC 25922, reference strain
[7] = Pseudomonas aeruginosa ATCC27853, reference strain

Compound | MIC (Molarity) [1, 6] | MIC (Molarity) [2, 7] | MIC (Molarity) [3] | MIC (Molarity) ([1]; ATCC 25922) | MIC (Molarity) ([2]; ATCC27853) | other results
CO/N=C(\C(=O)N[C@@H]1C(=O)N2C(C(=O)O)=C(CSc3nc(=O)c(=O)[nH]n3C)CS[C@H]12)c1csc(N)n1 [CEFTRIAXONE, ceftriaxone, reference compound] | 14 to 110 µM | 1.7 to 14 µM | 0.054 to 0.21 µM |  |  | 
C[C@H]1COc2c(N3CCN(C)CC3)c(F)cc3c(=O)c(C(=O)O)cn1c23 [LEVOFLOXACIN, levofloxacin, reference compound] | 1.3 to 11 µM | 0.16 to 1.3 µM | 0.022 to 16 µM |  |  | 
I: AKKIRVRLSAKKA-OH / II: AKKIRVRLSAK / III: AKKIRVRLSA / IV: AKKIRVRLSA (amide I:11-IV:C, I:12-II:C, II:11-III:C) [M31] |  |  | >12 µM | 3 µM | 3 µM | 
magainin 2 [reference compound] |  |  |  |  |  | Weight ratio of peptide to DNA at which migration of DNA is inhibited [4]: 5
I: QKKIAVRLSAKKA-OH / II: QKKIAVRLSAK / III: QKKIAVRLSA / IV: QKKIAVRLSA (amide I:11-IV:C, I:12-II:C, II:11-III:C) [M35, QKKIAVRLSA] |  |  | >12 µM | 6 µM | 1.5 µM | 
QKKIRARLSA [M36] | >12 µM | >12 µM | >12 µM |  |  | 
I: QKAIRVRLSAKKA-OH / II: QKAIRVRLSAK / III: QKAIRVRLSA / IV: QKAIRVRLSA (amide I:11-IV:C, I:12-II:C, II:11-III:C) [M33, QKAIRVRLSA] | 1.5 µM | 1.5 µM | >12 µM |  |  | 
I: QKKIRVRLAAKKA-OH / II: QKKIRVRLAAK / III: QKKIRVRLAA / IV: QKKIRVRLAA (amide I:11-IV:C, I:12-II:C, II:11-III:C) [M39, QKKIRVRLAA] |  |  | >12 µM | 3 µM | 3 µM | 
I: QKRIRVRLSAKKA-OH / II: QKRIRVRLSAK / III: QKRIRVRLSA / IV: QKRIRVRLSA (amide I:11-IV:C, I:12-II:C, II:11-III:C) [M29, QKRIRVRLSA] |  |  | >12 µM | 6 µM | 6 µM | 
CC[C@H](C)[C@H](NC(=O)[C@H](CCCCN)NC(=O)[C@H](CCC(=O)O)NC(=O)[C@@H](N)CCC(N)=O)C(=O)N[C@@H](CCCNC(=N)N)C(=O)N[C@H](C(=O)N[C@@H](CCCNC(=N)N)C(=O)N[C@@H](CC(C)C)C(=O)N[C@@H](CO)C(=O)N[C@@H](C)C(N)=O)C(C)C [L1, QEKIRVRLSA] (H-QEKIRVRLSA-NH2; N-terminus assumed) |  |  |  |  |  | Antibacterial activity on E. coli TG1 colony growth (E. coli strain TG1): inhibited significantly; Resistance to plasmatic protease: Plasma 2 h [5]: +; Resistance to plasmatic protease: Plasma 24 h [5]: −
QKKIRVRASA [M38] | >12 µM | >12 µM | >12 µM |  |  | 
I: QKKARVRLSAKKA-OH / II: QKKARVRLSAK / III: QKKARVRLSA / IV: QKKARVRLSA (amide I:11-IV:C, I:12-II:C, II:11-III:C) [M34, QKKARVRLSA] | >12 µM |  | >12 µM |  | 12 µM | 
NCC[C@H](O)C(=O)N[C@@H]1C[C@H](N)[C@@H](O[C@H]2O[C@H](CN)[C@@H](O)[C@H](O)[C@H]2O)[C@H](O)[C@H]1O[C@H]1O[C@H](CO)[C@@H](O)[C@H](N)[C@H]1O [AMIKACIN, amikacin, reference compound] | 1.7 to 6.8 µM | 1.7 to 6.8 µM | 0.85 to 6.8 µM |  |  | 
I: QRKIRVRLSAKKA-OH / II: QRKIRVRLSAK / III: QRKIRVRLSA / IV: QRKIRVRLSA (amide I:11-IV:C, I:12-II:C, II:11-III:C) [M28] | 0.38 µM | 0.76 µM | >12 µM |  |  | 
I: QRRIRVRLSAKKA-OH / II: QRRIRVRLSAK / III: QRRIRVRLSA / IV: QRRIRVRLSA (amide I:11-IV:C, I:12-II:C, II:11-III:C) [M30, QRRIRVRLSA] |  |  | >12 µM | 3 µM | 12 µM | 
I: QKKIRVALSAKKA-OH / II: QKKIRVALSAK / III: QKKIRVALSA / IV: QKKIRVALSA (amide I:11-IV:C, I:12-II:C, II:11-III:C) [M37] |  |  | >12 µM | 3 µM | 3 µM | 
